The results in this text go back to publication PMC6143143 (Biochemistry, 2018).

Test [1] has as its target MmCobD (MM2060 protein, full length) (Methanosarcina mazei, UniProt Q8PVB1). Briefly: ADP-Glo ATPase inhibition assay. The test is classed as biochemical. The note with it: MmCobD 6 μM, HEPES pH 7.5. Background: In ADP-Glo the light output rises with the ADP produced.
In a further test the target is T1, SeCobD (Salmonella enterica, UniProt P97084).
T1 sequence (P97084 1-364): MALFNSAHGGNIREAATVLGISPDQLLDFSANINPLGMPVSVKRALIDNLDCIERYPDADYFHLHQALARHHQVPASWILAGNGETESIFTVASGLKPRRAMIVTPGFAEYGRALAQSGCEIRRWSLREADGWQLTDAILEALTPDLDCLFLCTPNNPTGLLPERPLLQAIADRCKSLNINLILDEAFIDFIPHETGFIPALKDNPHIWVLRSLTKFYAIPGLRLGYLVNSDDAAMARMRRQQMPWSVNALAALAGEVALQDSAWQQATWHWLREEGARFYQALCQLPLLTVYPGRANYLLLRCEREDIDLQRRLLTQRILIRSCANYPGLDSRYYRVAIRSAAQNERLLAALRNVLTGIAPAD
The test is described as follows: […]-NMR and […] TLC decarboxylation assay. The test is classed as biochemical. The note with it: decarboxylated to (R)-1-aminopropan-2-ol O-phosphate; pH 8.5.

With `O=P(O)(O)OP(=O)(O)OP(=O)(O)O` [PPPi], in test [1] (inhibitor 10 mM), the inhibition entry is on record as “MmCobD was inhibited in the following order from most inhibitory to least: BeF2>ADP>ADP-γ-S>PPPi>Na3VO4”.

`C[C@@H](OP(=O)(O)O)[C@H](N)C(=O)O` [L-Thr-P]: the “13C-NMR and 14C TLC decarboxylation assay” value on SeCobD was “conversion of L-Thr-P (peaks A, B, C, D; red) to AP-P”. Regarding `[O]=[V]([OH])([OH])[OH]` [Na3VO4], the inhibition result in test [1] (inhibitor 1 mM, weakest of the series) is recorded as “MmCobD was inhibited in the following order from most inhibitory to least: BeF2>ADP>ADP-γ-S>PPPi>Na3VO4”.
